# Source: ChEMBL document CHEMBL1138159, “Enantiomer discrimination illustrated by the high resolution crystal structures of type 4 phosphodiesterase” (J Med Chem, 2006)
# Legend:
# [1] = target: T1, 3',5'-cyclic-AMP phosphodiesterase 4A (Homo sapiens, UniProt P27815); test: Inhibition of PDE4A with respect to increase in cAMP concentration
# [2] = target: 3',5'-cyclic-AMP phosphodiesterase 4B (Homo sapiens, UniProt Q07343); test: Inhibition of PDE4B
# [3] = target: T1, 3',5'-cyclic-AMP phosphodiesterase 4A; test: Inhibition of PDE4A
# [4] = target: 3',5'-cyclic-AMP phosphodiesterase 4C (Homo sapiens, UniProt Q08493); test: Inhibition of PDE4C
# 3',5'-cyclic-AMP phosphodiesterase 4C, sequence (Q08493 whole entry): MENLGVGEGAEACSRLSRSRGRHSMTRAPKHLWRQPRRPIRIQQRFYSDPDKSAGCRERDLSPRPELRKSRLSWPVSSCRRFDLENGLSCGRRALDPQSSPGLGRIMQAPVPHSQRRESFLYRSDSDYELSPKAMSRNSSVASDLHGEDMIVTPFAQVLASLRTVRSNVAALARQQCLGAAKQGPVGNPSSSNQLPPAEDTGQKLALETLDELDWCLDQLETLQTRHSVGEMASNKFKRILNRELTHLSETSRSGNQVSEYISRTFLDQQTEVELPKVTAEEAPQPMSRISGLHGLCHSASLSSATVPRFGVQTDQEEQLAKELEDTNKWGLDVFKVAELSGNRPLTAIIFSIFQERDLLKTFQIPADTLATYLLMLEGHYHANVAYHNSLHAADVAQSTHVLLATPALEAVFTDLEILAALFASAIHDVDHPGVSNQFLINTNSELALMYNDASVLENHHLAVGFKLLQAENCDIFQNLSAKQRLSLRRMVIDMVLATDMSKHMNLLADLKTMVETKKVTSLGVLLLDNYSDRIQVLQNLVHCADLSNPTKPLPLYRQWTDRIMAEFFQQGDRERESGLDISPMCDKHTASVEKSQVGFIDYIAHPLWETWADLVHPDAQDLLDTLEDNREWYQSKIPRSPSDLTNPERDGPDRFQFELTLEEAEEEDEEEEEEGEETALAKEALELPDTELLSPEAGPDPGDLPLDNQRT
# T1 sequence (P27815 whole entry): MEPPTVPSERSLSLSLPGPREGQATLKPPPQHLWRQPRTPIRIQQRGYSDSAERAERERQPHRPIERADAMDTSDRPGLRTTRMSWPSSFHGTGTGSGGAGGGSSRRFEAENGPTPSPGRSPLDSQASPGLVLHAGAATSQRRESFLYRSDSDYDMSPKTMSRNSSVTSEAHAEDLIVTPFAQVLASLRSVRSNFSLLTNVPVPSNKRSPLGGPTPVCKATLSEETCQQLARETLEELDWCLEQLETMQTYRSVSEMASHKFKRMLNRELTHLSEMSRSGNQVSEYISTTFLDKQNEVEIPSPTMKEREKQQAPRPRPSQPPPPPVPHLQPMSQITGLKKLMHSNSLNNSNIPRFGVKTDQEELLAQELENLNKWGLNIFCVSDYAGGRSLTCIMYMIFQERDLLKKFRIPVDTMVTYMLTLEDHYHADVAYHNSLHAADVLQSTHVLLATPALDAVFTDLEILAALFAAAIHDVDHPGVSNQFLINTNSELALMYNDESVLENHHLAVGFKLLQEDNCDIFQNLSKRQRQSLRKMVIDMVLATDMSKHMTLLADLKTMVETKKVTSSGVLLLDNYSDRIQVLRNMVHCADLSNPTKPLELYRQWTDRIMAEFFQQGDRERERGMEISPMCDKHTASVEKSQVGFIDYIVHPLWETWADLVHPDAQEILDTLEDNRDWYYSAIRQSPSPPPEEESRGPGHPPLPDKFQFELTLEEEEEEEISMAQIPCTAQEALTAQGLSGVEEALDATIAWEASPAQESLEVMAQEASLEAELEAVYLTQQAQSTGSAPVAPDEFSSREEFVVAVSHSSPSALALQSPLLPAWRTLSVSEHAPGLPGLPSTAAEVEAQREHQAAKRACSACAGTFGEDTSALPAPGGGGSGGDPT
# 3',5'-cyclic-AMP phosphodiesterase 4B, sequence (Q07343 whole entry): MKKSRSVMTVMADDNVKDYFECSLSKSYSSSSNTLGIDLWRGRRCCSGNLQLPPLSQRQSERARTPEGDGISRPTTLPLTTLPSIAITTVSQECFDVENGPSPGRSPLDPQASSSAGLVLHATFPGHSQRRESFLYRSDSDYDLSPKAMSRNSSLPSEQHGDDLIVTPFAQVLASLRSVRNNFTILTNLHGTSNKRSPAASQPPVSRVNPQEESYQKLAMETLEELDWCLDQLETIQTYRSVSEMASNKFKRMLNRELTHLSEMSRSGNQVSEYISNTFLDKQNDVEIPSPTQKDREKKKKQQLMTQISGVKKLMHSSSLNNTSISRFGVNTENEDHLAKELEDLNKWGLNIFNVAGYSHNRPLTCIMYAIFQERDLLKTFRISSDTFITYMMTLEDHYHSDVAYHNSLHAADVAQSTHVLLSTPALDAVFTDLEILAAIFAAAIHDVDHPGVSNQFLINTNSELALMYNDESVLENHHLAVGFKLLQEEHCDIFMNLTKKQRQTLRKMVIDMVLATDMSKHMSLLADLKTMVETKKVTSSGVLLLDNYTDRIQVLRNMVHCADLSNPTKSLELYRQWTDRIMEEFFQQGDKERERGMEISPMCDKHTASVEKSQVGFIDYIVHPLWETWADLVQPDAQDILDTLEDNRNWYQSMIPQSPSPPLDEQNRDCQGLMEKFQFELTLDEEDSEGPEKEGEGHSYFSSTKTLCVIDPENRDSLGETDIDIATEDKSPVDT
Ki [1],IC50 [2],IC50 [3],IC50 [4],SMILES
0.00043 µM,–,–,–,[O-][n+]1cccc(C[C@@H](c2ccc(OC(F)F)c(OC3CC3)c2)c2cnc(C(O)(C(F)(F)F)C(F)(F)F)s2)c1
–,0.04 µM,0.056 µM,0.135 µM,[O-][n+]1cccc(C[C@H](c2ccc(OC(F)F)c(OC3CC3)c2)c2cnc(C(O)(C(F)(F)F)C(F)(F)F)s2)c1
